# Data from US12077503B2, “Substituted cyclic amides and their use as herbicides” (FMC CORPORATION, priority 2015, dated 2024).
# What was measured:
# Assay type in all cases: in vivo
# [1] = test system: Galium (catchweed bedstraw, Galium aparine); test: Test A postemergence; settings: Galium, post-emergence, 240 h, read-out: Plant response rating, Galium; for pest or weed control at 125 g/ha: 125 g ai/ha, postemergence, visual injury after approximately 10 d, 0 to 100 scale (0 no effect, 100 complete control)
# How it was run: (§1)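 Compounds were formulated in a non-phytotoxic solvent mixture with surfactant and applied as a preemergence directed soil spray after seeding, or sprayed postemergence over plants 2 to 10 cm tall at the one- to two-leaf stage. Evaluation after about 10 d compared treated with untreated controls, using a scale from 0 (no effect) to 100 (complete control).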
# [2] = test system: Kochia (Kochia scoparia); test: Test A postemergence; settings: Bassia scoparia, post-emergence, 240 h, read-out: Plant response rating, Kochia; for pest or weed control at 125 g/ha: 125 g ai/ha, postemergence, visual injury after approximately 10 d, 0 to 100 scale (0 no effect, 100 complete control)
# How it was run: as §1
# [3] = test system: barnyardgrass (Echinochloa crus-galli); test: Test A postemergence; settings: Echinochloa crus-galli, post-emergence, 240 h, read-out: Plant response rating, Barnyardgrass; for pest or weed control at 125 g/ha: 125 g ai/ha, postemergence, visual injury after approximately 10 d, 0 to 100 scale (0 no effect, 100 complete control)
# How it was run: as §1
# [4] = test system: blackgrass (Alopecurus myosuroides); test: Test A postemergence; settings: Alopecurus myosuroides, post-emergence, 240 h, read-out: Plant response rating, Blackgrass; for pest or weed control at 125 g/ha: 125 g ai/ha, postemergence, visual injury after approximately 10 d, 0 to 100 scale (0 no effect, 100 complete control)
# How it was run: as §1
# [5] = test system: corn (Zea mays); test: Test A postemergence; settings: Zea mays, post-emergence, 240 h; for Corn plant response rating (crop injury, 0 = no effect, 100 = complete kill) at 125 g/ha: 125 g ai/ha, postemergence, visual injury after approximately 10 d, 0 to 100 scale (0 no effect, 100 complete control)
# How it was run: as §1
# [6] = test system: giant foxtail (Setaria faberii); test: Test A postemergence; settings: Setaria faberi, post-emergence, 240 h, read-out: Plant response rating, Foxtail, Giant; for pest or weed control at 125 g/ha: 125 g ai/ha, postemergence, visual injury after approximately 10 d, 0 to 100 scale (0 no effect, 100 complete control)
# How it was run: as §1
# [7] = test system: pigweed (Amaranthus retroflexus); test: Test A postemergence; settings: Amaranthus retroflexus, post-emergence, 240 h, read-out: Plant response rating, Pigweed; for pest or weed control at 125 g/ha: 125 g ai/ha, postemergence, visual injury after approximately 10 d, 0 to 100 scale (0 no effect, 100 complete control)
# How it was run: as §1
# [8] = test system: ragweed (common ragweed, Ambrosia elatior); test: Test A postemergence; settings: Ambrosia artemisiifolia, post-emergence, 240 h, read-out: Plant response rating, Ragweed; for pest or weed control at 125 g/ha: 125 g ai/ha, postemergence, visual injury after approximately 10 d, 0 to 100 scale (0 no effect, 100 complete control)
# How it was run: as §1
# [9] = test system: ryegrass, Italian (Italian ryegrass, Lolium multiflorum); test: Test A postemergence; settings: Lolium multiflorum, post-emergence, 240 h, read-out: Plant response rating, Ryegrass, Italian; for pest or weed control at 125 g/ha: 125 g ai/ha, postemergence, visual injury after approximately 10 d, 0 to 100 scale (0 no effect, 100 complete control)
# How it was run: as §1
# [10] = test system: wheat (Triticum aestivum); test: Test A postemergence; settings: Triticum aestivum, post-emergence, 240 h, read-out: Plant response rating, Wheat; for plant injury at 125 g/ha: 125 g ai/ha, postemergence, visual injury after approximately 10 d, 0 to 100 scale (0 no effect, 100 complete control)
# How it was run: as §1
# [11] = test system: barnyardgrass (Echinochloa crus-galli); test: Test B flooded paddy test; settings: Echinochloa crus-galli, Flood, 250 g ai/ha; scale of 0 to 100 where 0 is no effect and 100 is complete control; read-out: Barnyardgrass plant response rating
# How it was run: (§2)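 Evaluation by eye, against controls, occurred 13–15 d post-treatment in a greenhouse, using a 0 (no effect) to 100 (complete control) scale. Application was into the paddy water, 3 cm deep over the soil, on 2-leaf plants.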
# [12] = test system: ducksalad (Heteranthera limosa); test: Test B flooded paddy test; settings: Heteranthera limosa, Flood, 250 g ai/ha; scale of 0 to 100 where 0 is no effect and 100 is complete control; read-out: Ducksalad plant response rating
# How it was run: as §2
# [13] = test system: rice (Oryra sativa); test: Test B flooded paddy test; settings: Oryza sativa, Flood, 250 g ai/ha; scale of 0 to 100 where 0 is no effect and 100 is complete control; read-out: Rice plant response rating
# How it was run: as §2
# [14] = test system: sedge, umbrella (small-flower umbrella sedge, Cyperus difformis); test: Test B flooded paddy test; settings: Cyperus difformis, Flood, 250 g ai/ha; scale of 0 to 100 where 0 is no effect and 100 is complete control; read-out: Sedge, Umbrella plant response rating
# How it was run: as §2
# [15] = Postemergence, 31 g ai/ha, visual injury after approx. 10 d, 0 to 100 scale, 0 no effect, 100 complete control
compound,measurement,setting,value
COc1cc([C@H]2CN(C)C(=O)[C@@H]2C(=O)Nc2cccc(F)c2F)ccc1C(F)(F)F [Compound 770],pest or weed control at 125 g/ha,[1],60%
same,pest or weed control at 31 g/ha,[1]; [15],30%
same,pest or weed control at 125 g/ha,[2],40%
same,pest or weed control at 31 g/ha,[2]; [15],0%
same,pest or weed control at 125 g/ha,[3],60%
same,pest or weed control at 31 g/ha,[3]; [15],30%
same,pest or weed control at 125 g/ha,[4],0%
same,pest or weed control at 31 g/ha,[4]; [15],0%
same,"Corn plant response rating (crop injury, 0 = no effect, 100 = complete kill) at 125 g/ha",[5],50%
same,"Corn plant response rating (crop injury, 0 = no effect, 100 = complete kill) at 31 g/ha",[5]; [15],0%
same,pest or weed control at 125 g/ha,[6],70%
same,pest or weed control at 31 g/ha,[6]; [15],60%
same,pest or weed control at 125 g/ha,[7],30%
same,pest or weed control at 31 g/ha,[7]; [15],0%
same,pest or weed control at 125 g/ha,[8],0%
same,pest or weed control at 31 g/ha,[8]; [15],0%
same,pest or weed control at 125 g/ha,[9],0%
same,pest or weed control at 31 g/ha,[9]; [15],0%
same,plant injury at 125 g/ha,[10],0%
same,plant injury at 31 g/ha,[10]; [15],0%
same,pest or weed control at 250 g/ha,[11],0%
same,pest or weed control at 250 g/ha,[12],0%
same,pest or weed control at 250 g/ha,[13],0%
same,pest or weed control at 250 g/ha,[14],0%
CC(F)(F)c1cccc([C@H]2CNC(=O)[C@@H]2C(=O)Nc2ccccc2S(C)(=O)=O)c1 [Compound 780],pest or weed control at 125 g/ha,[1],50%
same,pest or weed control at 125 g/ha,[2],30%
same,pest or weed control at 125 g/ha,[3],60%
same,pest or weed control at 125 g/ha,[4],50%
same,"Corn plant response rating (crop injury, 0 = no effect, 100 = complete kill) at 125 g/ha",[5],40%
same,pest or weed control at 125 g/ha,[6],60%
same,pest or weed control at 125 g/ha,[7],0%
same,pest or weed control at 125 g/ha,[8],0%
same,pest or weed control at 125 g/ha,[9],0%
same,plant injury at 125 g/ha,[10],30%
same,pest or weed control at 250 g/ha,[11],20%
same,pest or weed control at 250 g/ha,[12],90%
same,pest or weed control at 250 g/ha,[13],0%
same,pest or weed control at 250 g/ha,[14],0%
Cc1cc([C@H]2CNC(=O)[C@@H]2C(=O)Nc2ccc(F)cc2F)ccc1F [Compound 718],pest or weed control at 125 g/ha,[1],40%
same,pest or weed control at 125 g/ha,[2],30%
same,pest or weed control at 125 g/ha,[3],70%
same,pest or weed control at 125 g/ha,[4],20%
same,"Corn plant response rating (crop injury, 0 = no effect, 100 = complete kill) at 125 g/ha",[5],0%
same,pest or weed control at 125 g/ha,[6],30%
same,pest or weed control at 125 g/ha,[7],0%
same,pest or weed control at 125 g/ha,[8],0%
same,pest or weed control at 125 g/ha,[9],0%
same,plant injury at 125 g/ha,[10],0%
same,pest or weed control at 250 g/ha,[11],40%
same,pest or weed control at 250 g/ha,[12],100%
same,pest or weed control at 250 g/ha,[13],0%
same,pest or weed control at 250 g/ha,[14],0%
